{"source": "PubChem BioAssay (NCI)", "experiment_in_all_cases": "NCI tumour cell line growth inhibition, 48 h", "key": {"[1]": {"system": "786-0 renal"}, "[2]": {"system": "A549 NSCLC"}, "[3]": {"system": "BT-549 breast"}, "[4]": {"system": "CAKI-1 renal"}, "[5]": {"system": "CCRF-CEM leukemia"}, "[6]": {"system": "COLO 205 colon"}, "[7]": {"system": "DU-145 prostate"}, "[8]": {"system": "EKVX NSCLC"}, "[9]": {"system": "HCC-2998 colon"}, "[10]": {"system": "HCT-116 colon"}, "[11]": {"system": "HCT-15 colon"}, "[12]": {"system": "HOP-62 NSCLC"}, "[13]": {"system": "HOP-92 NSCLC"}, "[14]": {"system": "HS 578T breast"}, "[15]": {"system": "HT29 colon"}, "[16]": {"system": "IGROV1 ovarian"}, "[17]": {"system": "K-562 leukemia"}, "[18]": {"system": "KM12 colon"}, "[19]": {"system": "LOX IMVI melanoma"}, "[20]": {"system": "M14 melanoma"}, "[21]": {"system": "MALME-3M melanoma"}, "[22]": {"system": "MCF7 breast"}, "[23]": {"system": "MDA-MB-231 breast"}, "[24]": {"system": "MDA-MB-435"}, "[25]": {"system": "MDA-N"}, "[26]": {"system": "MOLT-4 leukemia"}, "[27]": {"system": "NCI-H226 lung"}, "[28]": {"system": "NCI-H23 lung"}, "[29]": {"system": "NCI-H460 lung"}, "[30]": {"system": "NCI/ADR-RES ovarian"}, "[31]": {"system": "OVCAR-3 ovarian"}, "[32]": {"system": "OVCAR-4 ovarian"}, "[33]": {"system": "OVCAR-5 ovarian"}, "[34]": {"system": "OVCAR-8 ovarian"}, "[35]": {"system": "PC-3 prostate"}, "[36]": {"system": "RPMI-8226 leukemia"}, "[37]": {"system": "RXF 393 renal"}, "[38]": {"system": "SF-268 CNS"}, "[39]": {"system": "SF-295 CNS"}, "[40]": {"system": "SF-539 CNS"}, "[41]": {"system": "SK-MEL-2 melanoma"}, "[42]": {"system": "SK-MEL-5 melanoma"}, "[43]": {"system": "SK-OV-3 ovarian"}, "[44]": {"system": "SN12C renal"}, "[45]": {"system": "SNB-19 CNS"}, "[46]": {"system": "SNB-75 CNS"}, "[47]": {"system": "SW-620 colon"}, "[48]": {"system": "T-47D breast"}, "[49]": {"system": "U251 CNS"}, "[50]": {"system": "UACC-257 melanoma"}, "[51]": {"system": "UACC-62 melanoma"}, "[52]": {"system": "UO-31 renal"}, "[53]": {"system": "ACHN renal"}, "[54]": {"system": "HL-60(TB) leukemia"}, "[55]": {"system": "NCI-H522 lung"}, "[56]": {"system": "TK-10 renal"}}, "note": "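Compound exposure: 48 hours, 5 concentrations, 96-well plates. TGI: concentration producing complete growth inhibition.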", "data": [{"smiles": "CCCc1cc(=O)oc2c3c(c4c(c12)OC(C)(C)CC4)O[C@H](C)[C@@H](C)[C@H]3O", "values": [{"measurement": "TGI", "setting": "[1]", "value": 29.8, "unit": "µM"}, {"measurement": "TGI", "setting": "[2]", "value": 64, "unit": "µM"}, {"measurement": "TGI", "setting": "[3]", "value": 26.6, "unit": "µM"}, {"measurement": "TGI", "setting": "[4]", "value": 35.1, "unit": "µM"}, {"measurement": "TGI", "setting": "[5]", "value": 33.8, "unit": "µM"}, {"measurement": "TGI", "setting": "[6]", "value": 33.6, "unit": "µM"}, {"measurement": "TGI", "setting": "[7]", "value": 29.8, "unit": "µM"}, {"measurement": "TGI", "setting": "[8]", "value": 26.2, "unit": "µM"}, {"measurement": "TGI", "setting": "[9]", "value": 31.8, "unit": "µM"}, {"measurement": "TGI", "setting": "[10]", "value": 29.4, "unit": "µM"}, {"measurement": "TGI", "setting": "[11]", "value": 27.5, "unit": "µM"}, {"measurement": "TGI", "setting": "[12]", "value": 35.3, "unit": "µM"}, {"measurement": "TGI", "setting": "[13]", "value": 33.3, "unit": "µM"}, {"measurement": "TGI", "setting": "[14]", "value": 50.2, "unit": "µM"}, {"measurement": "TGI", "setting": "[15]", "value": 22.7, "unit": "µM"}, {"measurement": "TGI", "setting": "[16]", "value": 30.8, "unit": "µM"}, {"measurement": "TGI", "setting": "[17]", "value": 21.1, "unit": "µM"}, {"measurement": "TGI", "setting": "[18]", "value": 28.7, "unit": "µM"}, {"measurement": "TGI", "setting": "[19]", "value": 31.7, "unit": "µM"}, {"measurement": "TGI", "setting": "[20]", "value": 37.2, "unit": "µM"}, {"measurement": "TGI", "setting": "[21]", "value": 37.9, "unit": "µM"}, {"measurement": "TGI", "setting": "[22]", "value": 43.2, "unit": "µM"}, {"measurement": "TGI", "setting": "[23]", "value": 30.9, "unit": "µM"}, {"measurement": "TGI", "setting": "[24]", "value": 25.7, "unit": "µM"}, {"measurement": "TGI", "setting": "[25]", "value": 23.7, "unit": "µM"}, {"measurement": "TGI", "setting": "[26]", "value": 27.8, "unit": "µM"}, {"measurement": "TGI", "setting": "[27]", "value": 34.2, "unit": "µM"}, {"measurement": "TGI", "setting": "[28]", "value": 30.3, "unit": "µM"}, {"measurement": "TGI", "setting": "[29]", "value": 41.7, "unit": "µM"}, {"measurement": "TGI", "setting": "[30]", "value": 33.1, "unit": "µM"}, {"measurement": "TGI", "setting": "[31]", "value": 37.7, "unit": "µM"}, {"measurement": "TGI", "setting": "[32]", "value": 28.6, "unit": "µM"}, {"measurement": "TGI", "setting": "[33]", "value": 31.6, "unit": "µM"}, {"measurement": "TGI", "setting": "[34]", "value": 32.6, "unit": "µM"}, {"measurement": "TGI", "setting": "[35]", "value": 23.5, "unit": "µM"}, {"measurement": "TGI", "setting": "[36]", "value": 18.8, "unit": "µM"}, {"measurement": "TGI", "setting": "[37]", "value": 47.3, "unit": "µM"}, {"measurement": "TGI", "setting": "[38]", "value": 35.1, "unit": "µM"}, {"measurement": "TGI", "setting": "[39]", "value": 32, "unit": "µM"}, {"measurement": "TGI", "setting": "[40]", "value": 41.9, "unit": "µM"}, {"measurement": "TGI", "setting": "[41]", "value": 49.1, "unit": "µM"}, {"measurement": "TGI", "setting": "[42]", "value": 29.3, "unit": "µM"}, {"measurement": "TGI", "setting": "[43]", "value": 31.7, "unit": "µM"}, {"measurement": "TGI", "setting": "[44]", "value": 34.3, "unit": "µM"}, {"measurement": "TGI", "setting": "[45]", "value": 32.2, "unit": "µM"}, {"measurement": "TGI", "setting": "[46]", "value": 31.3, "unit": "µM"}, {"measurement": "TGI", "setting": "[47]", "value": 35.8, "unit": "µM"}, {"measurement": "TGI", "setting": "[48]", "value": 29.8, "unit": "µM"}, {"measurement": "TGI", "setting": "[49]", "value": 32.2, "unit": "µM"}, {"measurement": "TGI", "setting": "[50]", "value": 28.1, "unit": "µM"}, {"measurement": "TGI", "setting": "[51]", "value": 27.4, "unit": "µM"}, {"measurement": "TGI", "setting": "[52]", "value": 26.7, "unit": "µM"}]}, {"smiles": "Cc1cc(C)c2cc(N)c(Cl)nc2n1", "values": [{"measurement": "TGI", "setting": "[1]", "value": "> 100", "unit": "µM"}, {"measurement": "TGI", "setting": "[2]", "value": "> 100", "unit": "µM"}, {"measurement": "TGI", "setting": "[53]", "value": "> 100", "unit": "µM"}, {"measurement": "TGI", "setting": "[3]", "value": "> 100", "unit": "µM"}, {"measurement": "TGI", "setting": "[4]", "value": "> 100", "unit": "µM"}, {"measurement": "TGI", "setting": "[5]", "value": "> 100", "unit": "µM"}, {"measurement": "TGI", "setting": "[6]", "value": "> 100", "unit": "µM"}, {"measurement": "TGI", "setting": "[7]", "value": "> 100", "unit": "µM"}, {"measurement": "TGI", "setting": "[8]", "value": "> 100", "unit": "µM"}, {"measurement": "TGI", "setting": "[10]", "value": "> 100", "unit": "µM"}, {"measurement": "TGI", "setting": "[11]", "value": "> 100", "unit": "µM"}, {"measurement": "TGI", "setting": "[54]", "value": "> 100", "unit": "µM"}, {"measurement": "TGI", "setting": "[13]", "value": "> 100", "unit": "µM"}, {"measurement": "TGI", "setting": "[14]", "value": "> 100", "unit": "µM"}, {"measurement": "TGI", "setting": "[15]", "value": "> 100", "unit": "µM"}, {"measurement": "TGI", "setting": "[16]", "value": "> 100", "unit": "µM"}, {"measurement": "TGI", "setting": "[18]", "value": "> 100", "unit": "µM"}, {"measurement": "TGI", "setting": "[20]", "value": "> 100", "unit": "µM"}, {"measurement": "TGI", "setting": "[21]", "value": "> 100", "unit": "µM"}, {"measurement": "TGI", "setting": "[22]", "value": "> 100", "unit": "µM"}, {"measurement": "TGI", "setting": "[23]", "value": "> 100", "unit": "µM"}, {"measurement": "TGI", "setting": "[24]", "value": "> 100", "unit": "µM"}, {"measurement": "TGI", "setting": "[25]", "value": "> 100", "unit": "µM"}, {"measurement": "TGI", "setting": "[27]", "value": "> 100", "unit": "µM"}, {"measurement": "TGI", "setting": "[28]", "value": "> 100", "unit": "µM"}, {"measurement": "TGI", "setting": "[29]", "value": "> 100", "unit": "µM"}, {"measurement": "TGI", "setting": "[55]", "value": "> 100", "unit": "µM"}, {"measurement": "TGI", "setting": "[30]", "value": "> 100", "unit": "µM"}, {"measurement": "TGI", "setting": "[33]", "value": "> 100", "unit": "µM"}, {"measurement": "TGI", "setting": "[34]", "value": "> 100", "unit": "µM"}, {"measurement": "TGI", "setting": "[35]", "value": "> 100", "unit": "µM"}, {"measurement": "TGI", "setting": "[36]", "value": "> 100", "unit": "µM"}, {"measurement": "TGI", "setting": "[37]", "value": "> 100", "unit": "µM"}, {"measurement": "TGI", "setting": "[38]", "value": "> 100", "unit": "µM"}, {"measurement": "TGI", "setting": "[39]", "value": "> 100", "unit": "µM"}, {"measurement": "TGI", "setting": "[40]", "value": "> 100", "unit": "µM"}, {"measurement": "TGI", "setting": "[41]", "value": "> 100", "unit": "µM"}, {"measurement": "TGI", "setting": "[42]", "value": "> 100", "unit": "µM"}, {"measurement": "TGI", "setting": "[43]", "value": "> 100", "unit": "µM"}, {"measurement": "TGI", "setting": "[44]", "value": "> 100", "unit": "µM"}, {"measurement": "TGI", "setting": "[45]", "value": "> 100", "unit": "µM"}, {"measurement": "TGI", "setting": "[46]", "value": "> 100", "unit": "µM"}, {"measurement": "TGI", "setting": "[47]", "value": "> 100", "unit": "µM"}, {"measurement": "TGI", "setting": "[48]", "value": "> 100", "unit": "µM"}, {"measurement": "TGI", "setting": "[56]", "value": "> 100", "unit": "µM"}, {"measurement": "TGI", "setting": "[49]", "value": "> 100", "unit": "µM"}, {"measurement": "TGI", "setting": "[50]", "value": "> 100", "unit": "µM"}, {"measurement": "TGI", "setting": "[51]", "value": "> 100", "unit": "µM"}, {"measurement": "TGI", "setting": "[52]", "value": "> 100", "unit": "µM"}]}]}
